Source: ChEMBL document CHEMBL1201862, “PubChem BioAssay data set” (2004)
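Values below derive from 48-hour exposures of cells grown in 96-well plates, with endpoints linearly interpolated between the two concentrations bracketing the appropriate inhibition level. GI50: concentration for 50% inhibition of growth.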 Activity calls are given as the source filed them. No stated cut-off is given here; in the data, active = GI50 up to about 1.1 µM and inactive = higher.

Experiments:
Assay in all cases: NCI-60 cell line screen, 48 h
TK-10 = test system: TK-10
786-0 = test system: 786-0
ACHN = test system: ACHN
OVCAR-5 = test system: OVCAR-5
MDA-MB-231 = test system: MDA-MB-231
A549 = test system: A549
NCI/ADR-RES = test system: NCI/ADR-RES
DU-145 = test system: DU-145
HT-29 = test system: HT-29
MDA-MB-435 = test system: MDA-MB-435
MCF7 = test system: MCF7
SK-MEL-28 = test system: SK-MEL-28
SK-OV-3 = test system: SK-OV-3
HOP-92 = test system: HOP-92
M14 = test system: M14
NCI-H226 = test system: NCI-H226
Malme-3M = test system: Malme-3M
U-251 = test system: U-251
SNB-19 = test system: SNB-19
UACC-257 = test system: UACC-257
HCT-116 = test system: HCT-116
HOP-62 = test system: HOP-62
PC-3 = test system: PC-3
SK-MEL-2 = test system: SK-MEL-2
NCI-H23 = test system: NCI-H23
BT-549 = test system: BT-549
UACC-62 = test system: UACC-62
SF-295 = test system: SF-295
UO-31 = test system: UO-31
MDA-N = test system: MDA-N
MOLT-4 = test system: MOLT-4
OVCAR-4 = test system: OVCAR-4
CAKI-1 = test system: CAKI-1
Hs-578T = test system: Hs-578T
HCT-15 = test system: HCT-15
SNB-75 = test system: SNB-75
SW-620 = test system: SW-620
SK-MEL-5 = test system: SK-MEL-5
KM12 = test system: KM12
RPMI-8226 = test system: RPMI-8226
HL-60 = test system: HL-60
T47D = test system: T47D
IGROV-1 = test system: IGROV-1
RXF 393 = test system: RXF 393
EKVX = test system: EKVX
CCRF-CEM = test system: CCRF-CEM
HCC 2998 = test system: HCC 2998
A498 = test system: A498
NCI-H522 = test system: NCI-H522
SF-268 = test system: SF-268
NCI-H460 = test system: NCI-H460
OVCAR-8 = test system: OVCAR-8
OVCAR-3 = test system: OVCAR-3
COLO 205 = test system: COLO 205
SN12C = test system: SN12C
K562 = test system: K562
SR = test system: SR
LOX IMVI = test system: LOX IMVI
SF-539 = test system: SF-539

For `CN(C)c1ccc(/C=C2\N=C(N/N=C/c3ccccc3)NC2=O)cc1`, the GI50 (TK-10) was > 100 µM (inactive), the GI50 (786-0) was 44.2 µM (inactive) and the GI50 (ACHN) was > 100 µM (inactive). The GI50 (OVCAR-5) was > 100 µM (inactive), the GI50 (MDA-MB-231) was > 100 µM (inactive) and the GI50 (A549) was 36.7 µM (inactive). The GI50 (NCI/ADR-RES) was 29.1 µM (inactive), the GI50 (DU-145) was 58.7 µM (inactive) and the GI50 (HT-29) was 40.6 µM (inactive). The GI50 (MDA-MB-435) was 33 µM (inactive), the GI50 (MCF7) was 56.1 µM (inactive) and the GI50 (SK-MEL-28) was > 100 µM (inactive). The GI50 (SK-OV-3) was > 100 µM (inactive), the GI50 (HOP-92) was 26.4 µM (inactive) and the GI50 (M14) was 89.7 µM (inactive). The GI50 (NCI-H226) was > 100 µM (inactive), the GI50 (Malme-3M) was 69.5 µM (inactive) and the GI50 (U-251) was 60.5 µM (inactive). For the same molecule, the GI50 (SNB-19) was > 100 µM (inactive), the GI50 (UACC-257) was > 100 µM (inactive) and the GI50 (HCT-116) was 83.6 µM (inactive). The GI50 (HOP-62) was > 100 µM (inactive), the GI50 (PC-3) was 75.3 µM (inactive) and the GI50 (SK-MEL-2) was > 100 µM (inactive). The GI50 (NCI-H23) was 50.6 µM (inactive), the GI50 (BT-549) was > 100 µM (inactive) and the GI50 (UACC-62) was 79.8 µM (inactive). The GI50 (SF-295) was 69.5 µM (inactive), the GI50 (UO-31) was > 100 µM (inactive) and the GI50 (MDA-N) was 33.4 µM (inactive). For the same molecule, the GI50 (MOLT-4) was 26.8 µM (inactive), the GI50 (OVCAR-4) was 60.1 µM (inactive) and the GI50 (CAKI-1) was > 100 µM (inactive). The GI50 (Hs-578T) was 43 µM (inactive), the GI50 (HCT-15) was 33.4 µM and the GI50 (SNB-75) was 81.1 µM (inactive). The GI50 (SW-620) was 67.9 µM (inactive), the GI50 (SK-MEL-5) was 41.1 µM (inactive) and the GI50 (KM12) was 52.6 µM (inactive). The GI50 (RPMI-8226) was 28.8 µM (inactive), the GI50 (HL-60) was > 100 µM (inactive) and the GI50 (T47D) was 56.4 µM (inactive). For the same molecule, the GI50 (IGROV-1) was 44.9 µM (inactive), the GI50 (RXF 393) was 20.2 µM (inactive) and the GI50 (EKVX) was > 100 µM (inactive). For the same molecule, the GI50 (CCRF-CEM) was 35.2 µM (inactive), the GI50 (HCC 2998) was 42.1 µM (inactive) and the GI50 (A498) was > 100 µM (inactive). For the same molecule, the GI50 (NCI-H522) was 32.2 µM (inactive), the GI50 (SF-268) was 66.5 µM (inactive) and the GI50 (NCI-H460) was 49.9 µM (inactive). For the same molecule, the GI50 (OVCAR-8) was 26.3 µM (inactive), the GI50 (OVCAR-3) was > 100 µM (inactive) and the GI50 (COLO 205) was 47.1 µM (inactive). For the same molecule, the GI50 (SN12C) was > 100 µM (inactive).

`c1ccc(-c2cc(-c3ccncc3)cc(-c3ccncc3)n2)cc1` was tested, and the GI50 (TK-10) was > 100 µM (inactive), the GI50 (786-0) was 69.3 µM (inactive) and the GI50 (ACHN) was > 100 µM (inactive). For the same molecule, the GI50 (OVCAR-5) was > 100 µM (inactive), the GI50 (MDA-MB-231) was > 100 µM (inactive) and the GI50 (A549) was > 100 µM (inactive). For the same molecule, the GI50 (NCI/ADR-RES) was > 100 µM (inactive), the GI50 (K562) was > 100 µM (inactive) and the GI50 (DU-145) was > 100 µM (inactive). For the same molecule, the GI50 (HT-29) was > 100 µM (inactive), the GI50 (MDA-MB-435) was > 100 µM (inactive) and the GI50 (MCF7) was 0.618 µM (active). For the same molecule, the GI50 (SK-MEL-28) was > 100 µM (inactive), the GI50 (SK-OV-3) was 80.7 µM (inactive) and the GI50 (M14) was > 100 µM (inactive). The GI50 (NCI-H226) was > 100 µM (inactive), the GI50 (Malme-3M) was > 100 µM (inactive) and the GI50 (U-251) was 51.3 µM (inactive). The GI50 (SNB-19) was 45.2 µM (inactive), the GI50 (UACC-257) was > 100 µM (inactive) and the GI50 (HCT-116) was > 100 µM (inactive). For the same molecule, the GI50 (HOP-62) was 33.3 µM (inactive), the GI50 (PC-3) was > 100 µM (inactive) and the GI50 (SK-MEL-2) was > 100 µM (inactive). The GI50 (NCI-H23) was > 100 µM (inactive), the GI50 (BT-549) was > 100 µM (inactive) and the GI50 (UACC-62) was > 100 µM (inactive). For the same molecule, the GI50 (SF-295) was 62.2 µM (inactive), the GI50 (UO-31) was > 100 µM (inactive) and the GI50 (MDA-N) was > 100 µM (inactive). For the same molecule, the GI50 (MOLT-4) was > 100 µM (inactive), the GI50 (OVCAR-4) was > 100 µM (inactive) and the GI50 (CAKI-1) was > 100 µM (inactive). For the same molecule, the GI50 (Hs-578T) was 38.5 µM (inactive), the GI50 (HCT-15) was > 100 µM and the GI50 (SNB-75) was 29 µM (inactive). The GI50 (SW-620) was > 100 µM (inactive), the GI50 (SK-MEL-5) was > 100 µM (inactive) and the GI50 (KM12) was > 100 µM (inactive). For the same molecule, the GI50 (SR) was > 100 µM (inactive), the GI50 (RPMI-8226) was > 100 µM (inactive) and the GI50 (HL-60) was > 100 µM (inactive). The GI50 (T47D) was > 100 µM (inactive), the GI50 (IGROV-1) was > 100 µM (inactive) and the GI50 (RXF 393) was > 100 µM (inactive). The GI50 (EKVX) was > 100 µM (inactive), the GI50 (CCRF-CEM) was > 100 µM (inactive) and the GI50 (HCC 2998) was > 100 µM (inactive). The GI50 (LOX IMVI) was > 100 µM (inactive), the GI50 (NCI-H522) was 18.2 µM (inactive) and the GI50 (SF-268) was 45.6 µM (inactive). For the same molecule, the GI50 (OVCAR-8) was > 100 µM (inactive), the GI50 (OVCAR-3) was > 100 µM (inactive) and the GI50 (COLO 205) was > 100 µM (inactive). The GI50 (SN12C) was > 100 µM (inactive).

For `O=C1NC2=NOC(=O)NC2=NO1`, the GI50 (TK-10) was > 200 µM (inactive), the GI50 (786-0) was > 200 µM (inactive) and the GI50 (ACHN) was > 200 µM (inactive). For the same molecule, the GI50 (OVCAR-5) was > 200 µM (inactive), the GI50 (MDA-MB-231) was > 200 µM (inactive) and the GI50 (A549) was > 200 µM (inactive). The GI50 (SF-539) was > 200 µM (inactive), the GI50 (NCI/ADR-RES) was > 200 µM (inactive) and the GI50 (K562) was > 200 µM (inactive). The GI50 (DU-145) was > 200 µM (inactive), the GI50 (HT-29) was > 200 µM (inactive) and the GI50 (MDA-MB-435) was > 200 µM (inactive). For the same molecule, the GI50 (MCF7) was > 200 µM (inactive), the GI50 (SK-MEL-28) was > 200 µM (inactive) and the GI50 (SK-OV-3) was > 200 µM (inactive). The GI50 (HOP-92) was > 200 µM (inactive), the GI50 (M14) was > 200 µM (inactive) and the GI50 (NCI-H226) was > 200 µM (inactive). For the same molecule, the GI50 (Malme-3M) was > 200 µM (inactive), the GI50 (U-251) was > 200 µM (inactive) and the GI50 (SNB-19) was > 200 µM (inactive). For the same molecule, the GI50 (UACC-257) was > 200 µM (inactive), the GI50 (HCT-116) was > 200 µM (inactive) and the GI50 (HOP-62) was > 200 µM (inactive). The GI50 (PC-3) was > 200 µM (inactive), the GI50 (SK-MEL-2) was > 200 µM (inactive) and the GI50 (NCI-H23) was > 200 µM (inactive). The GI50 (BT-549) was > 200 µM (inactive), the GI50 (UACC-62) was > 200 µM (inactive) and the GI50 (SF-295) was > 200 µM (inactive). For the same molecule, the GI50 (UO-31) was > 200 µM (inactive), the GI50 (MDA-N) was > 200 µM (inactive) and the GI50 (MOLT-4) was > 200 µM (inactive). For the same molecule, the GI50 (OVCAR-4) was > 200 µM (inactive), the GI50 (CAKI-1) was > 200 µM (inactive) and the GI50 (Hs-578T) was > 200 µM (inactive). The GI50 (HCT-15) was > 200 µM, the GI50 (SNB-75) was > 200 µM (inactive) and the GI50 (SW-620) was > 200 µM (inactive). The GI50 (SK-MEL-5) was > 200 µM (inactive), the GI50 (KM12) was > 200 µM (inactive) and the GI50 (RPMI-8226) was > 200 µM (inactive). For the same molecule, the GI50 (HL-60) was > 200 µM (inactive), the GI50 (T47D) was > 200 µM (inactive) and the GI50 (IGROV-1) was > 200 µM (inactive). For the same molecule, the GI50 (RXF 393) was > 200 µM (inactive), the GI50 (EKVX) was > 200 µM (inactive) and the GI50 (CCRF-CEM) was > 200 µM (inactive). The GI50 (HCC 2998) was > 200 µM (inactive), the GI50 (A498) was > 200 µM (inactive) and the GI50 (LOX IMVI) was > 200 µM (inactive). The GI50 (NCI-H522) was > 200 µM (inactive), the GI50 (SF-268) was > 200 µM (inactive) and the GI50 (NCI-H460) was > 200 µM (inactive). For the same molecule, the GI50 (OVCAR-8) was > 200 µM (inactive), the GI50 (OVCAR-3) was > 200 µM (inactive) and the GI50 (COLO 205) was > 200 µM (inactive). For the same molecule, the GI50 (SN12C) was > 200 µM (inactive).
